Eleven compounds from PubChem BioAssay (NCI) can be followed below.

Values joined by “and” are separate entries in the source; they are usually repeats but may differ in a detail not shown here. Equal values may be shown once.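 Results reflect a 48-hour exposure of cells in 96-well plates to compound at five concentrations. At the GI50, growth is halved. TGI: concentration producing complete growth inhibition.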

Common to all, as to assay: NCI-60 cell line screen, 48 h
Test [1] relates to COLO 205 colon.
For test [2], the system named is NCI-H23 lung.
Test [3] concerns A498 renal.
The subject of test [4] is UACC-62 melanoma.
The test system of test [5] is HS 578T breast.
Test [6] has as its system SF-539 CNS.
For test [7], the system named is SK-OV-3 ovarian.
The test system of test [8] is HL-60(TB) leukemia.
For test [9], the system named is HOP-18 NSCLC.
Test [10] has as its system M19-MEL melanoma.

Turning to `COc1ccc(C2CC(c3ccccc3)=NN2C(=O)c2cc(OC)c(OC)c(OC)c2)cc1O` (stereo not drawn), the GI50 in [1] is 2.96 µM; in [2], 0.743 µM; in [3] it was 0.618 µM; in test [4], 0.269 µM; in test [5] it was 0.316 µM; in test [6], 0.288 µM. Moreover, the values for the GI50 in test [7] and in test [8] were 0.414 µM and 0.244 µM, respectively. Moreover, the TGI was 10.4 µM in [1]; above 65.8 µM in [2]; 19.4 µM in test [3]; 15.8 µM in [4]; 1.13 µM in test [5]; 1.31 µM in test [6]. Moreover, the TGI in [7] stood at 16.6 µM; in test [8], 1.05 µM.
`CC(=O)n1nnc2ccc([N+](=O)[O-])cc21`: the TGI in [1], in test [2], in [9], in test [10], in test [4] and in [6] was above 100 µM throughout. For the same compound, the TGI in test [7] and in test [8] was above 100 µM throughout.
For the compound `COc1ccc(N=N/C(=N\NC(=O)c2cc(Br)ccc2O)c2ccc(N(CCC#N)CCC#N)cc2OC)cc1`, the GI50 in [1] is 50.6 µg/mL; in [2], 110 µg/mL; in [3], above 150 µg/mL; in test [4] it was 94.2 µg/mL; in [5] it was 82.5 µg/mL; in test [6] it was 80.8 µg/mL. Also, the GI50 in test [7] is 80.6 µg/mL; in test [8] it was 56.7 µg/mL. Moreover, the TGI in [1], in test [2], in [3], in test [4], in test [5] and in test [6] was above 150 µg/mL in each case. Further, the TGI in [7] and in test [8] was above 150 µg/mL each time.
In the case of `CC(=O)NC(CS)C(=O)O` (stereo not drawn), the GI50 in test [1], in test [2], in test [4], in test [5], in test [6] and in [7] was above 100 µM throughout. Besides, in test [8], the GI50 is above 100 µM. For the same compound, the TGI in [1] was above 100 µM; in test [2], > 100 µM and 62700 µM; in [3], 18500 µM; in [4] it was above 100 µM; in test [5], > 100 µM and 87200 µM; in test [6], above 100 µM. In addition, the TGI in test [7] and in [8] was above 100 µM throughout.
For `O=CC1CCC=CC1NC(=O)OCc1ccccc1` (stereo not drawn), the TGI is above 100 µM in test [1]; above 100 µM in test [2]; above 100 µM in test [9]; above 100 µM in test [10]; above 100 µM in test [4]; 51.9 µM in test [6]. Besides, the TGI in test [7] is above 100 µM; in [8] it was 46.5 µM.
For `COc1cc(N2CCN(C(C)C)CC2)ccc1Nc1nc(Nc2ccc(F)cc2C(=O)NCC(O)CO)c2cc[nH]c2n1` (stereo not drawn), the GI50 in test [1] was 0.526 µM; in [2] it was 4.22 µM; in test [3] it was 2.5 µM; in test [4] it was 9.87 µM; in [5], 6.9 µM; in [6] it was 5.13 µM. For the same compound, the GI50 in test [7] is 6.85 µM; in test [8], 1.08 µM. The TGI in test [1] is above 9.9 µM; in test [2], above 23.3 µM; in test [3] it was above 25 µM; in test [4], above 25 µM; in test [5], above 25 µM; in test [6] it was above 25 µM. For the same compound, the TGI in test [7] was above 25 µM; in test [8], 13.6 µM.
Turning to `CCSc1nc(NC(C)c2ccccc2)c2cnn(CO)c2n1` (stereo not drawn), the GI50 in test [1] was above 100 µM; in test [2] it was 18.4 µM; in test [3], 27 µM; in test [4], 26.6 µM; in test [5], 8.09 µM; in test [6], 94.4 µM. Besides, the GI50 in test [7] was 45.8 µM; in [8], above 100 µM. Also, the TGI in [1] was above 100 µM; in test [2], above 100 µM; in test [3], above 100 µM; in test [4], above 100 µM; in test [5] it was 99.4 µM; in test [6] it was above 100 µM. Moreover, the TGI in test [7] and in test [8] was above 100 µM each time.
Regarding `Cc1ccc(C(=O)C(c2nc3n(c2O)C(=N)N=N3)c2nc3n(c2O)C(=N)N=N3)cc1` (stereo not drawn), the TGI in test [1], in test [2], in [3], in test [10], in test [4] and in test [6] was above 100 µM each time. The TGI in test [7] and in test [8] was above 100 µM throughout.
With `COc1ccc(C2=NN(C=O)C(c3ccc(OS(=O)(=O)c4ccc(C)cc4)c(OC)c3)C2)cc1` (stereo not drawn), the GI50 was 8.44 µM in test [1]; 4.58 µM in [2]; 1.81 µM in [3]; 3.73 µM in test [4]; 5.66 µM in [5]; 8.62 µM in test [6]. For the same compound, the figures for the GI50 in [7] and in test [8] were 8.88 µM and 2.56 µM, respectively. In addition, the TGI in test [1] is above 100 µM; in test [2], above 100 µM; in test [3], above 100 µM; in [4], above 100 µM; in [5], 88.3 µM; in test [6], above 100 µM. The TGI in [7] and in [8] was above 100 µM throughout.
On to `Cc1ccc(/C=C(/C#N)n2nnc3ncccc32)cc1`, for which the GI50 in test [1] is 2.25 µM; in test [2] it was 3.09 µM; in [3] it was 2.28 µM; in test [4], 3.2 µM; in test [5], 2.95 µM; in test [6], 2.47 µM. Moreover, the GI50 was 3.9 µM in test [7] and 2.99 µM in test [8]. In addition, the TGI in test [1] is 10.5 µM; in test [2] it was 17.9 µM; in [3] it was 7.51 µM; in test [4] it was 15.8 µM; in test [5] it was above 100 µM; in test [6] it was 9.61 µM. The TGI in test [7] was above 100 µM; in [8] it was 9.92 µM.
With `CCc1cccc(C)c1N1C(=O)C(=O)C(c2nc3ccccc3o2)/C(=N/NC(=S)NN)C1=O` (stereo not drawn), the TGI in [1], in [2], in test [3], in [10], in [4] and in test [6] was above 100 µM throughout. In addition, the TGI in test [7] and in test [8] was above 100 µM each time.
